Data taken from PMC3001719, “The heme sensing response regulator HssR in Staphylococcus aureus but not the homologous RR23 in Listeria monocytogenes modulates susceptibility to the antimicrobial peptide plectasin” (BMC Microbiology, 2010).

Experiments:
L. monocytogenes [1] = experiment: MIC of plectasin stated in the text; format: cell-based, Listeria monocytogenes; conditions: difference in MIC values between the strains
[2] = test system: S. aureus 8325-4 wild type; experiment: In vitro bacterial killing kinetics; format: cell-based, Staphylococcus aureus; conditions: plectasin 1× MIC, TSB, 37°C, CFU after 1, 3 and 5 hours
Protocol: (§1) Overnight cultures of S. aureus wild type […], 8325-4 hssR::bursa and 8325-4 hssR::bursa/pRMC2-hssRS were diluted 1000 fold in TSB and grown 2 hours at 37°C. Samples were taken to time T = 0 and plated for CFU determination. Plectasin (1× MIC) was added, and samples were withdrawn after 1,3 and 5 hours growth at 37°C and plated for CFU determination.

[3] = test system: S. aureus 8325-4 hssR::bursa; experiment: In vitro bacterial killing kinetics; format: cell-based, Staphylococcus aureus; conditions: plectasin 1× MIC, TSB, 37°C, CFU after 1, 3 and 5 hours; 8325-4 hssR::bursa mutant
Protocol: as §1

[4] = test system: S. aureus wild type and hssR mutants; experiment: Extracellular protein profile by SDS-PAGE; format: cell-based, Staphylococcus aureus; conditions: S. aureus wild type and hssR mutants grown with or without plectasin overnight at 37°C in TSB; data not shown
Protocol: Prewarmed TSB and BHI (25 ml) in a 250 ml Erlenmeyer flask was inoculated with S. aureus strains and L. monocytogenes strains, respectively. These flasks were grown with and without plectasin at 37°C overnight (≈ 17 h) with shaking. The next morning, the exact absorbance at 600 nm of the cultures was measured, and 15 ml of culture was centrifuged to precipitate the cells (6 000 RPM; 7 min; 0°C). The supernatant was transferred to a 50 ml Blue cap bottle (placed in an ice/water bath), and the extracellular proteins were precipitated by adding one volume of ice-cold 96% EtOH and left in the refrigerator overnight for proteins to precipitate. Precipitated proteins were collected by centrifugation (11,000 RPM; 30 min; 0°C). Protein pellets were suspended in a volume of 50 mM Tris-HCl (pH 6.8) adjusted to the original absorbance of the overnight culture so that 15 ml of overnight culture with absorbance at 600 nm of 5.0 was suspended in 0.8 ml of 50 mM Tris-HCl (pH 6.8). A sample of 15 μl of the protein extracts was analysed on NuPAGE® 4-12% Bis-Tris gels (Invitrogen) using the X Cell SureLock® Mini-Cell system (Invitrogen) as recommended by the supplier. The gels were Coomassie stained using GelCode® Blue Stain Reagent (Pierce).

[5] = test system: S. aureus 8325-4 hssR mutant; experiment: Growth in TSB with plectasin and/or hemin; format: cell-based, Staphylococcus aureus; conditions: plectasin 35 μg/ml, 37°C, absorbance at 600 nm, transduced 8325-4 hssR mutant
Protocol: (§2) Overnight cultures of S. aureus were diluted to an absorbance at 600 nm of 0.05 in TSB with and without 4 μM hemin and/or 35 μg/ml plectasin and grown at 37°C. Measurements of the absorbance were made every 30 minutes.

[6] = test system: S. aureus 8325-4 wild type; experiment: Growth in TSB with plectasin and/or hemin; format: cell-based, Staphylococcus aureus; conditions: plectasin 35 μg/ml, 37°C, absorbance at 600 nm
Protocol: as §2

[7] = test system: methicillin resistant S. aureus (MRSA); conditions: cited from earlier work
Text: (§3) In the present study, we addressed the response of two human pathogens, S. aureus and L. monocytogenes to plectasin. […] In addition, the two bacteria represent different routes of infection and may be exposed to different arrays of HDPs. S. aureus is a hospital- and community-acquired pathogen that causes a wide range of diseases including septicaemia, toxic-shock syndrome and food poisoning ...

L. monocytogenes [8] = conditions: cited from earlier work
Text: as §3

## CC[C@H](C)[C@@H]1NC(=O)[C@H](CO)NC(=O)[C@H](CCCCN)NC(=O)[C@@H]2CSSC[C@@H](C(=O)N[C@@H](Cc3ccc(O)cc3)C(=O)O)NC(=O)[C@H](CCCCN)NC(=O)[C@@H]3CSSC[C@H](NC(=O)[C@H](CCC(N)=O)NC(=O)[C@H](CCSC)NC(=O)[C@H](CC(=O)O)NC(=O)[C@H](CC(=O)O)NC(=O)[C@H](CCC(=O)O)NC(=O)[C@H](CC(=O)O)NC(=O)[C@H](Cc4c[nH]c5ccccc45)NC(=O)[C@@H]4CCCN4C(=O)CNC(=O)[C@H](CC(N)=O)NC(=O)[C@@H](NC(=O)CNC(=O)[C@H](Cc4ccccc4)NC(=O)CN)CSSC[C@H](NC(=O)[C@H](Cc4ccc(O)cc4)NC(=O)CNC(=O)CNC(=O)[C@H](CCCCN)NC(=O)[C@H](Cc4ccc(O)cc4)NC(=O)CNC(=O)[C@H](CCCCN)NC1=O)C(=O)N[C@@H](C)C(=O)N[C@@H](CCCCN)C(=O)NCC(=O)NCC(=O)N[C@@H](Cc1ccccc1)C(=O)N[C@@H](C(C)C)C(=O)N3)C(=O)N[C@@H](Cc1c[nH]cn1)C(=O)N[C@@H](CC(N)=O)C(=O)N[C@@H](Cc1c[nH]cn1)C(=O)N2 [plectasin]
L. monocytogenes [1]
  Tolerance of L. monocytogenes compared to S. aureus: 4-8 fold
[2]
  Kinetics of bacterial killing in vitro: killed rapidly
[3]
  Kinetics of bacterial killing in vitro: killed slower than the wild type
[4]
  Abundance of extracellular proteins: no difference in the abundance of extracellular proteins
[5]
  Growth in the presence of plectasin: hardly affected the growth
[6]
  Growth in the presence of plectasin: inhibited the growth
[7]
  MIC: 16 to 32 µg/mL
L. monocytogenes [8]
  MIC: above 64 mg/L
